Assay results: US20250064803A1, “DOSAGE REGIMENS FOR PARP7 INHIBITORS” (Ribon Therapeutics, Inc., priority 2021, published 2025)
Where “and” joins values, the source holds several entries; their conditions need not be identical. Equal entries are not always repeated. Entries after “also recorded” stand apart in the source; their conditions may differ.

How the values were obtained:
[1] = Plasma pharmacokinetics after oral tablets and capsules in male Beagle dogs; format: in vivo; settings: for AUC / Cmax: male, Beagle, dog, plasma, po, 100 mg
Description: The objective of this study was to determine the plasma pharmacokinetic profiles of the compound of Formula I in male Beagle dogs after oral administration and to assess the exposure of tablets and capsules formulations.
Male Beagle dogs were purchased from Jiangsu Johnsen Bioresource CO., Ltd. The animals were 1-2.5 years old on the dosing day. All animals were housed in a 12-hour light/12-hour dark cycle environment. Animals for oral (PO) groups were fasted overnight prior to dosing and were fed approximately 2 hours after dosing. This study was approved by the Pharmaron Institutional Animal Care and Use Committee.
The compound of Formula I was used for the dose formulation and standard stock solution preparation. […] For the animals in PO groups, pentagastrin ([…], i.m.) was administrated 20 minutes before dosing PO formulation and 1.5 hours after the first pentagastrin dosing. The dosing volume was 0.024 mL/kg, the concentration was […] in DMSO/1 N NaOH/PBS. The dosing volume, detailed dosing time of pentagastrin was recorded. 10 mL of 0.001 N HCl was used to wash the gavage catheter for each animal.
Blood samples (0.5 mL) were collected from each animal via jugular veins. These blood samples were placed into tubes containing dipotassium ethylenediaminetetraacetic acid and then centrifuged at 2000 g for 10 minutes at 4° C. to produce plasma. All samples were stored at −75±15° C. until analysis.
Compound of Formula I was prepared in dimethyl sulfoxide with vortex at 1 mg/mL (free form) as standard stock solution. Calibration standard working solutions were prepared at concentrations of 5, 10, 20, 50, 100, 500, 1000, 5000, 10000 and 20000 ng/mL by serial dilution of the standard stock solution by 50% acetonitrile in water. […] These QC samples were prepared on the day of analysis in the same way as calibration standards.
5 μL of each calibration standard working solution (5, 10, 20, 50, 100, 500, 1000, 5000, 10000 and 20000 ng/mL) was added to 50 μL of blank Beagle Dog plasma to achieve calibration standards of 0.5-2000 ng/mL (0.5, 1, 2, 5, 10, 50, 100, 500, 1000, 2000 ng/mL) in a total volume of 55 μL. […] These QC samples were prepared on the day of analysis in the same way as calibration standards. 55 μL of standards, 55 μL of QC samples or 55 μL of unknown samples (50 μL of plasma sample with 5 μL 50% acetonitrile in water) were mixed with 200 μL of acetonitrile containing IS (internal standard, dexamethasone) to precipitate proteins. Then the samples were vortexed for 30 sec.
Data Acquisition was Performed by Sciex Analyst 1.6.3 Software (AB Sciex, Forster City, CA). Pharmacokinetic parameters were calculated by non-compartmental analysis (Phoenix TM WinNonlin® 6.1). The linear trapezoidal algorithm was used for AUC calculation.

[2] = Particle size by laser diffraction (USP 42 <429>, Malvern Mastersizer 3000); format: physicochemical
Description: The compound of Formula I can be prepared in micronized and nonmicronized forms. In some embodiments, the compound of Formula I used in the dosage forms of the invention is micronized. The micronized drug substance can be prepared, for example, by jet milling. Particle size can be measured by laser diffraction methods (e.g., USP 42 <429> Light Diffraction Measurement of Particle Size). Nonmicronized compound can have a particle diameter size [d90] of about 30 μm or larger. In some embodiments, nonmicronized compound has a particle diameter size [d90] of about 30 to about 500 μm, about 50 to about 400 μm, about 100 to about 350 μm, or about 150 to about 300 μm.
Micronized batches of the compound of Formula I were prepared by jet milling using a nitrogen gas feed. The nonmicronized starting material was prepared in a manner similar to the process for preparing crystalline compound of Formula I described in U.S. Pat. No. 10,550,105. Particle size was measured by laser diffraction according to USP 42 <429> using a Malvern Mastersizer 3000 equipped with a Hydro MV wet dispersion sample unit. Particle size diameters [d90] for two different lots were measured as 10.851 and 8.715 μm, respectively.

[3] = First-in-human Phase 1 dose escalation study: treatment-related adverse events, safety; format: in vivo
Description: This protocol is a first-in-human, Phase 1, multi-center, open-label, study designed to evaluate the safety profile, including any dose-limiting toxicities (DLTs), and (maximum tolerated dose) MTD of the compound of Formula I administered as a single agent PO and establish the recommended phase 2 dose (RP2D) of the compound of Formula I. The study has a Dose Escalation Phase, which includes a relative bioavailability assessment, followed by a Dose Expansion Phase in patients with selected tumor types.
In the Dose Escalation Phase of the study, patients with any histologically- or cytologically-confirmed solid tumor type (which may include “solid” lymphoma [e.g., mantle cell]) that is refractory to standard therapy and for whom no therapy exists that would be curative or might provide clinical benefit and therefore for whom experimental therapy is a reasonable option are eligible. In the Dose Expansion Phase of the study, the RP2D will be investigated in the following cancer types: squamous cell carcinoma of the lung (SCCL), head and neck squamous cell carcinoma (HNSCC), hormone receptor positive (HR+) breast cancer, and PARP7 amplified cancer.
Two schedules are employed in the Dose Escalation Phase: • Schedule 1 will examine a 21-day cycle with 14 days of the compound of Formula I administered at doses of 25 mg, 50 mg, 100 mg, 200 mg, 300 mg, and 500 mg BID followed by a rest period. • Schedule 2 will examine a 21-day continuous dosing cycle at doses of 100 mg, 200 mg, 300 mg, and 400 mg BID.
The most frequent compound of Formula I treatment-related AEs in the ongoing Phase 1 escalation study are dysgeusia or taste disorder (36%), decreased appetite (15%), fatigue (14%), nausea (12%), and anemia, constipation, diarrhea and decreased weight (10%) each.
Overall, the safety profile of the compound of Formula I is considered manageable at the RP2D for combination with pembrolizumab.

[4] = Relative bioavailability PK of micronized vs nonmicronized 100 mg tablets in Phase 1 patients; format: in vivo, human
Protocol: Assessments conducted after C1D1 will be the same as described for patients in the dose escalation cohorts following Schedule 2. Based on emerging PK data, additional Relative Bioavailability Cohorts at additional dose levels may be explored.
Patients enrolled in the Relative Bioavailability Cohort(s) will have an additional visit 7 days (±3 days) prior to C1D1. […] On C1D-7 patients will be attached to a Holter monitor that will run continuously for ˜24 hours (i.e., until patients return on the following day for the 24-hr PK sample collection on C1D-6). […] On C1D1, patients will be attached to a Holter monitor that will run continuously for ˜24 hours (i.e., immediately before the study drug dose on C1D2). […] Samples collected after C1D2 are not considered part of the relative Bioavailability data set.
Plasma samples were collected at 0.5, 1, 2, 4, 6, 8, 12 and 24 hours post dose. […] Plasma samples were collected at 0.5, 1, 2, 4, 6, 8, 12 and 24 hours post dose.

[5] = cited from earlier work
[6] = 100 mg capsule, micronized vs nonmicronized
[7] = particle size d90:d50 18:5 μm (micronized)
[8] = particle size d90:d50 228:108 μm (nonmicronized)
[9] = patients, ongoing Phase 1 escalation study
[10] = NSCLC patients, second or third line, Keynote-010 (n=682)

In the case of `C[C@@H](COCCC(=O)N1CCN(c2ncc(C(F)(F)F)cn2)CC1)Nc1cn[nH]c(=O)c1C(F)(F)F` [compound of Formula I, 5-[[(2S)-1-(3-oxo-3-[4-[5-(trifluoromethyl)pyrimidin-2-yl]piperazin-1-yl]propoxy)propan-2-yl]amino]-4-(trifluoromethyl)-2,3-dihydropyridazin-3-one], the “increase in AUC by micronization” value [1, 6] is reported as 2.8 fold, the “increase in Cmax by micronization” value [1, 6] is reported as 4.7 fold and the “exposure, micronized capsules (Group E) versus nonmicronized capsules (Group D)” value ([1]; 100 mg/dog PO) is reported as “much higher”. For the same molecule, the “oral exposure versus dose level” value ([1]; Groups A, B and C, tablets 25, 50, 100 mg/dog) was “increased with the dose level, though not linear”, the AUC [1, 7] was 9560 ng·h/mL and the Cmax [1, 7] was 1670 ng/mL. The AUC [1, 8] was 3400 ng·h/mL, the Cmax [1, 8] was 356 ng/mL and the “particle diameter size d[90]” value ([2]; micronized compound (jet milled)) was 10.851 μm and 8.715 μm. The “particle diameter size d[90]” value ([2]; nonmicronized compound) was 228.474 μm, the “safety profile / tolerability” value ([3]; 50 patients, first-in-human Phase 1 trial) was “favorable safety profile; also recorded: well tolerated” and the “treatment-related AE: anemia” value [3, 9] was 10%. For the same molecule, the “treatment-related AE: constipation” value [3, 9] was 10%, the “treatment-related AE: decreased appetite” value [3, 9] was 15% and the “treatment-related AE: decreased weight” value [3, 9] was 10%. The “treatment-related AE: diarrhea” value [3, 9] was 10%, the “treatment-related AE: dysgeusia or taste disorder” value [3, 9] was 36% and the “treatment-related AE: fatigue” value [3, 9] was 14%. For the same molecule, the “treatment-related AE: nausea” value [3, 9] was 12%, the “increase in mean AUC, micronized vs nonmicronized tablet” value [4] was “about 1.5 fold” and the “increase in mean Cmax, micronized vs nonmicronized tablet” value [4] was “about 2.4 fold”.
For “pembrolizumab: humanized antibody that binds to human PD-1, approved by the U.S. FDA”, the “adverse reactions leading to discontinuation” value [5, 10] is given as 8%, the “pneumonitis leading to discontinuation (most common)” value [5, 10] is given as 1.8% and the “most frequent treatment-related AEs (fatigue, musculoskeletal pain, decreased appetite, pruritus, diarrhea, nausea, rash, pyrexia, cough, dyspnea, constipation, pain, abdominal pain), reported in” value ([5]; single agent (Merck 2021)) is given as over 20%.
